From ChEMBL document CHEMBL5506009 (Eur J Med Chem, 2024)

System: not listed separately
Assay: Inhibition of wild type influenza A virus H5N1 A/Anhui/1/2005 Neuraminidase using MUNANA as substrate
Settings: not given

Compared with `O=C(CSc1nnc(-c2ccc3ncccc3c2)o1)NCCc1ccc2c(c1)OCO2`, `O=C(CSc1nnc(-c2ccc3ncccc3c2)o1)NCCc1cccc(F)c1` is 7.6-fold lower in IC50: 81000 nM for the first, 10700 nM for the second. The second is the more potent here.

First: O=C(CSc1nnc(COc2ccc3ccccc3c2)o1)NCc1ccc(F)cc1
Second: O=C(CSc1nnc(COc2ccc3ccccc3c2)o1)NCc1ccc(Cl)c(Cl)c1
The IC50 of the first is 6.1-fold lower: 140 nM for the first, 860 nM for the second.

First: Cc1cc([N+](=O)[O-])ccc1NC(=O)CSc1nnc(COc2ccc3ccccc3c2)o1
Second: O=C(CSc1nnc(COc2ccc3ccccc3c2)o1)Nc1ccc(C(F)(F)F)cn1
The IC50 of the first is 17-fold lower: 1350 nM for the first, 22700 nM for the second.

`O=C(CSc1nnc(-c2ccc3ncccc3c2)o1)Nc1ccc(C(F)(F)F)cn1` and `O=C(CSc1nnc(-c2ccc3ncccc3c2)o1)NCc1ccc(F)cc1` are within 1.5-fold of each other in IC50: 1960 nM for the first, 1750 nM for the second.

Going from `COc1cc(NC(=O)CSc2nnc(-c3ccc4ncccc4c3)o2)cc(OC)c1OC` to `COc1ccc(CCNC(=O)CSc2nnc(-c3ccc4ncccc4c3)o2)cc1OC`, the IC50 falls from 10400 nM to 2650 nM (3.9-fold). The second is the more potent here.

First: CCC(CC)O[C@@H]1C=C(C(=O)O)C[C@H](N)[C@H]1NC(C)=O [OSELTAMIVIR CARBOXYLATE]
Second: COc1cc(NC(=O)CSc2nnc(COc3ccc4ccccc4c3)o2)cc(OC)c1OC
The IC50 of the first is 140-fold lower: 310 nM for the first, 43800 nM for the second. The first is the more potent here.

Compared with `O=C(CSc1nnc(-c2ccc3ncccc3c2)o1)NCc1ccc(Cl)c(Cl)c1`, `COc1cccc(CCNC(=O)CSc2nnc(-c3ccc4ncccc4c3)o2)c1` is 5.3-fold higher in IC50: 470 nM for the first, 2510 nM for the second.

Compared with `COc1cccc(CCNC(=O)CSc2nnc(COc3ccc4ccccc4c3)o2)c1`, `O=C(CSc1nnc(COc2ccc3ccccc3c2)o1)NCCc1cccc(F)c1` is 2.4-fold lower in IC50: 2840 nM for the first, 1160 nM for the second.

First: O=C(CSc1nnc(COc2ccc3ccccc3c2)o1)NCCc1ccc2c(c1)OCO2
Second: COc1ccc(CCNC(=O)CSc2nnc(COc3ccc4ccccc4c3)o2)cc1OC
The IC50 of the first is 9.1-fold higher: 25600 nM for the first, 2820 nM for the second. The second is the more potent here.

System: Influenza A virus
Assay: microbe, parasite or virus in culture
Settings: H5N1

First: O=C(CSc1nnc(COc2ccc3ccccc3c2)o1)NCc1ccc(F)cc1
Second: O=C(CSc1nnc(-c2ccc3ncccc3c2)o1)NCc1ccc(Cl)c(Cl)c1
The EC50 of the first is 34-fold higher: 3700 nM for the first, 110 nM for the second.

Compound `CCC(CC)O[C@@H]1C=C(C(=O)O)C[C@H](N)[C@H]1NC(C)=O` [OSELTAMIVIR CARBOXYLATE] has an EC50 of 1470 nM.
